# Results as given in PMC11161644, “An effective and rapidly degradable disinfectant from disinfection byproducts” (Nature Communications, 2024).
# “And” between values parts separate entries of the source, which are not always exact repeats. Identical values can stand only once. Like-named read-outs stand apart in the source and are kept apart here.
# Key:
# E. coli (ATCC 25922) = assay: Inactivation of E. coli by disinfectants (membrane filter enumeration, contact time 5 min); assay type: cell-based, Escherichia coli; conditions: for log reduction at 500 µg/mL: dose 500 mg L-1, 5 min, read-out: Log (N/N0)
# How it was run: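 E. coli ATCC 25922 (10^6‒10^7 cells/mL) exposed to a series of DBP doses in 10 mM PBS (pH 7.2; pH effect tested at 6.2, 7.2, 8.2) for 5 min at 22 ± 1 °C. Survivors enumerated by membrane filtration on m-FC medium at 45 °C for 24 h; inactivation relative to undisinfected control.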
# S. aureus (ATCC 25923) = assay: Inactivation of S. aureus (contact time 5 min); assay type: cell-based, Staphylococcus aureus; conditions: Staphylococcus aureus, ATCC25923, 5 min, pH 7.2, S. aureus; dose 300 mg L-1; pH 7.2; contact time 5 min; read-out: Log (N/N0)
# Procedure: The chemicals and reagents used are detailed in Supplementary Note 1. The bacteria E. coli (ATCC 25922) and S. aureus (ATCC 25923) were cultured aerobically in Luria-Bertani broth (Sigma-Aldrich) and Tryptone Soya broth (Oxoid), respectively, at 37 °C for 16 h. The fungus C. albicans (ATCC 14053) was aerobically cultured in Sabouraud Dextrose broth (Difco) at 37 °C for 24 h. The microorganism cells were harvested by centrifugation at 1200×g (10 min, 4 °C) and resuspended in phosphate-buffered saline (PBS, 10 mM, pH 7.2). The disinfection experiments were performed in PBS solutions (10 mM, pH 7.2) with an initial concentration of E. coli, S. aureus, or C. albicans of 10^6‒10^7 cells per milliliter. A contact time of 5 min was used in accordance with the recommended time range of 0.25–10 min by USEPA for surface disinfection. Preliminary tests were conducted to determine the appropriate range of DBP doses. The appropriate dose range was established when the lowest and highest doses could achieve <1-log and >3-log of microbial inactivation, respectively. Based on the preliminary results, a series of doses of DBPs were added to the cell suspensions at room temperature (22 ± 1 °C). After the contact time of 5 min, the microorganism cells were enumerated following a membrane filter method. Briefly, serial 10-fold dilutions were conducted for the disinfected samples and the control sample without disinfection. Each diluted suspension was subjected to filtration through 0.45-μm membrane, which was then placed on a petri dish. The Petri dishes containing E. coli, S. aureus, and C. albicans were incubated in m-FC medium (Becton Dickinson & Co) at 45 °C for 24 h, in Tryptone Soya broth at 37 °C for 24 h and in Sabouraud Dextrose broth at 37 °C for 24 h, respectively. After incubation, the colony-forming units within a statistically reasonable range (20–80) were counted.
# P. dumerilii embryos = assay: Developmental toxicity assay with P. dumerilii embryos, dilution factor of in-use concentration (EC50,DF), also after degradation in darkness; assay type: in vivo, Platynereis dumerilii
# Description: The DBP doses for 3-log E. coli reduction (pH 7.2) were set as the in-use concentrations, which were serially diluted and added to the P. dumerilii embryos at 12-h postfertilization. A dilution factor was defined as the ratio of the in-use concentration to the exposure concentration. Each exposure set contained a control sample (i.e., the embryos at 12-h postfertilization developed in seawater without the addition of DBPs). By 24-h postfertilization, normally developed embryos should have reached the first larval stage. An inverted stereomicroscope (×40 magnification) was used to observe the larvae. The normal development percentage was calculated as the ratio of normally developed embryos to total embryos. By plotting the curve of the normal development percentage versus the dilution factor, the EC50,DF value (i.e., the dilution factor corresponding to 50% of the normal development percentage of the control sample) was obtained using SigmaPlot 12. The developmental toxicity test was conducted in duplicate.
# [1] = Degradation in seawater in darkness (pH 6.2, 7.2, 8.2)
# Procedure: To study the DBP degradation in seawater in darkness, a DBP was added at 10 mg L^−1 to 50 mL pretreated seawater (pH 8.2) in the quartz flasks. The flasks were wrapped with aluminum foil to simulate the dark condition. The samples were kept at 20 °C in darkness for 0‒120 h, during which the sample was adjusted to pH 6.2 and 7.2 or maintained at pH 8.2 by adding 4 mM phosphate buffer (pH 6.2, 7.2, and 8.2, respectively).
# For the DBP samples with and without sunlight, aliquots were taken at a specific reaction time. The sample aliquots were analyzed using Agilent high-performance liquid chromatography (HPLC) equipped with a Poroshell 120 EC-C18 column (4.6 × 150 mm, 4 µm particle size, Agilent) and a UV detector. The mobile phase, consisting of water (pre-adjusted to pH 2 with phosphoric acid) and acetonitrile at 50/50 (v/v), was applied at a flow rate of 1.0 mL min^−1. PCMX, 2,4-dihalophenols and 5-halosalicylic acids were detected at the wavelength of 230 nm. 2,5-Dihalohydroquinones and 2,6-DCQ were detected at the wavelength of 280 nm. All the degradation experiments were conducted in duplicate.
smiles,measurement,setting,value
"Oc1cc(I)c(O)cc1I [2,5-DIHQ, 2,5-diiodohydroquinone]",log reduction at 500 µg/mL,"E. coli (ATCC 25922); Escherichia coli, ATCC25922, 5 min, pH 6.2, E. coli, pH 6.2",1.76
same,log reduction at 500 µg/mL,"E. coli (ATCC 25922); Escherichia coli, ATCC25922, 5 min, pH 7.2, E. coli, pH 7.2",3.66
same,log reduction at 500 µg/mL,"E. coli (ATCC 25922); Escherichia coli, ATCC25922, 5 min, pH 8.2, E. coli, pH 8.2",5.5
same,EC (3-log inactivation),"E. coli (ATCC 25922); Escherichia coli, ATCC25922, 5 min, pH 7.2, contact time 5 min, read-out: Dose for achieving 3-log inactivation of E. coli",459 µg/mL
same,E. coli inactivation rate constant k,"E. coli (ATCC 25922); pH 7.2, contact time 5 min",0.13 L mg‒1 h‒1
same,log reduction at 300 µg/mL,S. aureus (ATCC 25923),0.792
same,Normal development (%),P. dumerilii embryos; dilution factor 86.0274,0.8729% and 0%
same,Normal development (%),P. dumerilii embryos; dilution factor 103.233,7.707% and 3.405%
same,Normal development (%),P. dumerilii embryos; dilution factor 129.041,16.1617% and 11.8279%
same,Normal development (%),P. dumerilii embryos; dilution factor 172.055,46.0177% and 46.8181%
same,Normal development (%),P. dumerilii embryos; dilution factor 258.082,63.2599% and 58.9623%
same,Normal development (%),P. dumerilii embryos; dilution factor 516.165,88.6525% and 83.3333%
same,Relative concentration remaining (1 at 0 min),"[1]; pH 6.2, degradation time 0 min",1
same,Relative concentration remaining (1 at 0 min),"[1]; pH 6.2, degradation time 15 min",1.009 and 0.9751
same,Relative concentration remaining (1 at 0 min),"[1]; pH 6.2, degradation time 30 min",1.028 and 0.9729
same,Relative concentration remaining (1 at 0 min),"[1]; pH 6.2, degradation time 60 min",1.02 and 0.9831
same,Relative concentration remaining (1 at 0 min),"[1]; pH 6.2, degradation time 90 min",0.9778 and 1.02
same,Relative concentration remaining (1 at 0 min),"[1]; pH 6.2, degradation time 120 min",1 and 0.9297
same,Relative concentration remaining (1 at 0 min),"[1]; pH 6.2, degradation time 180 min",0.9306 and 0.9617
same,Relative concentration remaining (1 at 0 min),"[1]; pH 6.2, degradation time 240 min",0.9273 and 0.981
same,Relative concentration remaining (1 at 0 min),"[1]; pH 7.2, degradation time 0 min",1
same,Relative concentration remaining (1 at 0 min),"[1]; pH 7.2, degradation time 15 min",1.0017 and 0.9494
same,Relative concentration remaining (1 at 0 min),"[1]; pH 7.2, degradation time 30 min",1.002 and 0.9365
same,Relative concentration remaining (1 at 0 min),"[1]; pH 7.2, degradation time 45 min",0.934 and 0.9212
same,Relative concentration remaining (1 at 0 min),"[1]; pH 7.2, degradation time 60 min",0.9213 and 0.886
same,Relative concentration remaining (1 at 0 min),"[1]; pH 7.2, degradation time 90 min",0.8145 and 0.7791
same,Relative concentration remaining (1 at 0 min),"[1]; pH 7.2, degradation time 120 min",0.7145 and 0.6664
same,Relative concentration remaining (1 at 0 min),"[1]; pH 7.2, degradation time 180 min",0.5609 and 0.5354
same,Relative concentration remaining (1 at 0 min),"[1]; pH 8.2, degradation time 0 min",1
same,Relative concentration remaining (1 at 0 min),"[1]; pH 8.2, degradation time 3 min",0.721 and 0.687
same,Relative concentration remaining (1 at 0 min),"[1]; pH 8.2, degradation time 8 min",0.4796 and 0.4372
same,Relative concentration remaining (1 at 0 min),"[1]; pH 8.2, degradation time 12 min",0.4155 and 0.3689
same,Relative concentration remaining (1 at 0 min),"[1]; pH 8.2, degradation time 16 min",0.2998 and 0.2743
same,Relative concentration remaining (1 at 0 min),"[1]; pH 8.2, degradation time 20 min",0.2215 and 0.1988
same,Relative concentration remaining (1 at 0 min),"[1]; pH 8.2, degradation time 25 min",0.1592 and 0.1253
same,half-life at 10 mg L−1,"[1]; pretreated seawater in darkness, pH 8.2",9.6 min
same,Ln (C/C0),"[1]; seawater pH 8.2, darkness, 0 min",0
